Experimental findings from patent US12558430B2, “Dual amylin and calcitonin receptor agonists and uses thereof” (Eli Lilly and Company, priority 2020, dated 2026) are described below.

The assay deals with DIO male Long Evans rats. Briefly: DIO rats: Compound II in combination with other incretin compounds. It counts as in vivo, rat. The conditions noted are these: mean ± SEM; for Cumulative Food Intake: 14-day treatment period; for Body Weight Change: Day −1 to Day 14. As for the experimental part:
This study is conducted to investigate the effect of Compound II for diabetes and/or obesity conditions in DIO rats when administered in combination with other incretin compounds, including a GLP-1 agonist (Compound III), oxyntomodulin analog (Compound IV), and a triagonist of glucagon, GLP-1, and GIP (Compound V). Diet-induced obese (DIO) male Long Evans (Envigo) rats, maintained on a calorie rich diet since arrival at Lilly (TD95217; Teklad, Madison, Wis.), are used in the following studies. Animals are individually housed in a temperature-controlled (24° C.) facility with 12-hour light/dark cycle (lights on 2200) and free access to food (TD95217) and water.
The rats are randomized according to their body weight, so that each experimental group of animals would have similar body weight. The body weights range from 529 to 823 grams.
Each group contains five rats. Vehicle and Compound II (1 nmol/kg) are dissolved in vehicle (40 mM Tris-HCl pH8+0.02% PS80) and are administered by subcutaneous (SC) injection (1 mL/kg) to ad libitum fed DIO rats 30 to 90 minutes prior to the onset of the dark cycle every 3 days for 14 days. SC injections are made on Days 1, 4, 7, 10 and 13. Body weight and food intake are measured daily throughout the study. Absolute changes in body weight are calculated by subtracting the body weight of the same animal prior to the first injection of molecule.
At the end of the study, blood is collected to measure blood glucose and plasma insulin. Blood glucose is measured by AccuChek glucometers (Roche, Indianapolis, Ind.). Insulin is measured by ELISA (MSD, Rockville, Md.).
All data are presented as mean±SEM of 5 animals per group. Statistical analysis is performed using one-way ANOVA, followed by Tukey's multiple comparison test to compare treatment groups to vehicle group or each other. Significant differences are identified at p<0.05.

Starred links: 1 amine or outer side, 2 acyl side, 3 side chain; linkers in the order of their positions; H or OH if unused. Non-standard residues stand in square brackets, D forms with d. Groups on a side chain read outwards from the residue. *: point of attachment. C20 diacid = O=C(O)CCCCCCCCCCCCCCCCCCC(=O)*; γGlu = O=C(O)[C@H](CCC(=O)[*:2])N[*:1]; AEEA = NCCOCCOCC(=O)O; Aib = CC(C)(N)C(=O)O

Regarding “Y-Aib-QGTFTSDYSI-αMeL-LDKK((2-[2-(2-Amino-ethoxy)-ethoxy]-acetyl)-(γGlu)-CO-(CH2)18-CO2H)AQ-Aib-AFIEYLLEGGPSSGAPPPS-NH2 (YXQGTFTSDYSIXLDKKAQXAFIEYLLEGGPSSGAPPPS; Aib, αMeL; lipidated Lys; C-terminal amide; SITE 2 X at position 2 is Aib; SITE 13 X at position 13 is alpha-methyl-Leu; MOD_RES 17 The Lys at position 17 is chemically modified by conjugation of the epsilon amino group of the Lys sidechain with 2-[2-(2-Amino-ethoxy)-ethoxy]-acetyl)-(gamma-Glu)-CO-(CH2)18-CO2H; SITE 20 X at position 20 is Aib; MOD_RES 39 C-terminus is amidated) [Compound V, triagonist of glucagon, GLP-1, and GIP]”, for the setting “3 nmol/kg SC every three days”, the “Cumulative Food Intake” value was 157.50 ± 10.63 g and the “Body Weight Change” value is -43.28 ± 2.54 g.
Take “H-Aib-QGTFTSDYSKYLDEKKAK((2-[2-(2-Amino-ethoxy)-ethoxy]-acetyl)2-(γGlu)-CO-(CH2)18-CO2H)EFVEWLLEGGPSSG-NH2 (H-H[Aib]QGTFTSDYSKYLDEKKAK([AEEA-AEEA-γGlu-C20 diacid])EFVEWLLEGGPSSG-NH2) [Compound IV, oxyntomodulin analog]”: where the note is “10 nmol/kg SC every three days”, the “Cumulative Food Intake” value is given as 165.86 ± 7.45 g and the “Body Weight Change” value is -50.24 ± 6.36 g.
